According to patent US20060252820A1, “Composition for oral administration containing alkylene dioxybenzene derivative” (priority 2003, published 2006):

Test: Conventional preparation of MKC-242 administered to a human
Format: in vivo
Conditions: conventional preparation (tablet) administered to a human

symptoms recognized (depending on drug concentration in plasma, all slight): nausea, dizziness, orthostatic syncope
half-life (plasma, oral, read-out: half-life T1/2): 2 to 5 h
Structure (SMILES): Cl.c1ccc2c(c1)OC[C@H](CNCCCOc1ccc3c(c1)OCO3)O2 [MKC-242, 5-[3-[[(2S)-1,4-benzodioxan-2-ylmethyl]amino]propoxy]-1,3-benzodioxole hydrochloride]
